The values below come from patent publication US6872805B2 (Bristol-Myers Squibb Company, priority 2000, dated 2005).

For test [1], the target named is HCV NS3/4A protease complex (Hepatitis C virus genotype 1a, UniProt P27958, C1454S/C1711G). In words: Recombinant HCV NS3/4A protease complex FRET peptide assay (strain not stated). The class given is biochemical. As to conditions: IC50, NS3/4A protease enzyme assay, strain not stated; activity ranges. The text has this: The purpose of this in vitro assay was to measure the inhibition of HCV NS3 protease complexes, derived from the BMS, H77C or J416S strains, as described below, by compounds of the present invention.
HCV NS3/4A protease complex, sequence (P27958 1027-1711, stated change not applied): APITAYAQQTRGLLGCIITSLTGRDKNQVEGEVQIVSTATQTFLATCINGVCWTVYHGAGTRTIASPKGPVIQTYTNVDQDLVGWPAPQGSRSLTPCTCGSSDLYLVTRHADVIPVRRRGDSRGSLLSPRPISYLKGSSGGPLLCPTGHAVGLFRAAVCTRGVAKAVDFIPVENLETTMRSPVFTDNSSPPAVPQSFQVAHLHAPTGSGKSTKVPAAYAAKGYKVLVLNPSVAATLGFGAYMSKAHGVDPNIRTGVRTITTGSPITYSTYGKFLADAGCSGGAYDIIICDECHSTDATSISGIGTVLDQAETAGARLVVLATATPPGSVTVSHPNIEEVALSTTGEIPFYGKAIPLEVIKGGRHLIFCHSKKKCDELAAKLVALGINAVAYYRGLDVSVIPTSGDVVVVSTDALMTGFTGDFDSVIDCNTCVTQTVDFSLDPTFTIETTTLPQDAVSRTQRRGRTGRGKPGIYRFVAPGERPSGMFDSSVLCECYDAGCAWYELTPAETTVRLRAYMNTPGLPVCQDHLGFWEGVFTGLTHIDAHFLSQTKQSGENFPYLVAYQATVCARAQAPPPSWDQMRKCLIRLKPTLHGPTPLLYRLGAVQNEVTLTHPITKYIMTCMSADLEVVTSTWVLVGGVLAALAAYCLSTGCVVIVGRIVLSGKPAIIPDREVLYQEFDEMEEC
HCV NS3/4A protease complex, sequence (P27958 1027-1711, stated change not applied): as above
Serum from an HCV-infected patient was obtained from Dr. T. Wright, San Francisco Hospital. An engineered full-length cDNA template of the HCV genome (BMS strain) was constructed from DNA fragments obtained by reverse transcription-PCR (RT-PCR) of serum RNA and using primers selected on the basis of homology between other genotype 1a strains. […] The infectious clones, H77C (1a genotype) and J4L6S (1b genotype) were obtained from R. Purcell (NIH) and the sequences are published in genebank (AAB67036, see Yanagi, M., Purcell, R. H., Emerson, S. U. and Bukh, J. Proc. Natl. Acad. Sci. U.S.A. 94(16),8738-8743 (1997); AF054247, see Yanagi, M., St Claire, M., Shapiro, M., Emerson, S. U., Purcell, R. H. and Bukh, J, Virology 244 (1), 161-172. (1998)).
The BMS, H77C and J4L6S strains were used for production of recombinant NS3/4A protease complexes. DNA encoding the recombinant HCV NS3/4A protease complex (amino acid 1027 to 1711) for these strains were manipulated as described by P. Gallinari et al. (see Gallinari P, Paolini C, Brennan D, Nardi C, Steinkuhler C, De Francesco R. Biochemistry. 38(17):5620-32, (1999)). Briefly, a three-lysine solubilizing tail was added at the 3′-end of the NS4A coding region. The cysteine in the P1 position of the NS4A-NS4B cleavage site (amino acid 1711) was changed to a glycine to avoid the proteolytic cleavage of the lysine tag. Furthermore, a cysteine to serine mutation was introduced by PCR at amino acid position 1454 to prevent the autolytic cleavage in the NS3 helicase domain. The variant DNA fragment was cloned in the pET21b bacterial expression vector and the NS3/4A complex was expressed in E. coli BL21 (DE3) following the protocol described by P. Gallinari et al. (see Gallinari P, Brennan D, Nardi C, Brunetti M, Tomei L, Steinkuhler C, De Francesco R., J Virol. 72(8):6758-69 (1998)) with modifications. Briefly, NS3/4A expression was induced with 0.5 mM IPTG for 22 hr at 20° C. […] The cells were resuspended in lysis buffer (10 mL/g) consisting of 25 mM HEPES, pH 7.5, 20% glycerol, 500 mM NaCl, 0.5% Triton-X100, 1 ug/ml lysozyme, 5 mM MgCl2, 1 ug/ml DNaseI 5 mM β-Mercaptoethanol (βME), Protease inhibitor—EDTA free, homogenized and incubated for 20 mins at 4° C. The homogenate was sonicated and clarified by ultra-centrifugation at 235000 g for 1 hr at 4° C. Imidazole was added to the supernatant to a final concentration of 15 mM and the pH adjusted to 8.0. The crude protein extract was loaded on a Ni-NTA column pre-equilibrated with buffer B (25 mM HEPES, pH 8.0, 20% glycerol, 500 mM NaCl, 0.5% Triton-X100, 15 mM imidazole, 5 mM βME). The sample was loaded at a flow rate of 1 mL/min. The column was washed with 15 column volumes of buffer C (same as buffer B except with 0.2% Triton-X100). The protein was eluted with 5 column volumes of 200 mM Imidazole in buffer.
NS3/4A protease complex-containing fractions were pooled and loaded on a desalting column Superdex-S200 pre-equilibrated with buffer D (25 mM HEPES, pH 7.5, 20% glycerol, 300 mM NaCl, 0.2% Triton-X100, 10 mM βME). Sample was loaded at a flow rate of 1 mL/min. NS3/4A protease complex-containing fractions were pooled and concentrated to approximately 0.5 mg/ml.

Test [2] has as its system HCV replicon in Huh7 cells. In words: HCV replicon cell-based assay. Details: species or system HCV strain 1B. As to conditions: Hepatitis C virus, Huh-7, 96 h; HCV replicon, Huh7 cells, 4 days; activity ranges; read-out: EC50. The text has this:
An HCV replicon whole cell system was established as described by Lohmann V, Korner F, Koch J, Herian U, Theilmann L, Bartenschlager R., Science 285(5424):110-3 (1999). This system enabled us to evaluate the effects of our HCV Protease compounds on HCV RNA replication. Briefly, using the HCV strain 1B sequence described in the Lohmann paper (Assession number:AJ238799), an HCV cDNA was generated encoding the 5′ internal ribosome entry site (IRES), the neo gene, the EMCV-IRES and the HCV nonstructural proteins, NS3-NS5B, and 3′ NTR. […] Resulting cell lines were characterized for positive and negative RNA production and protein production over time.
Huh7 cells, constitutively expressing the HCV replicon, were grown in DMEM containing 10% FCS (Fetal calf serum) and 1 mg/ml G418 (Gibco-BRL). Cells were seeded the night before (1.5×10^4 cells/well) in 96-well tissue-culture sterile plates. Compound was prepared in DMEM containing 4% FCS, 1:100 Penicillin/Streptomysin, 1:100 L-glutamine and 0.5% DMSO. Compound/DMSO mixes were added to the cells and incubated for 4 days at 37° C. After 4 days, cells were either lyzed using the Rneasy kit (Qiagen) to isolate and purify RNA for an EC50 determination or assessed for cytotoxicity using alamar Blue (Trek Diagnotstic Systems) for a CC50 reading. For an EC50 determination, purified total RNA was normalized using RiboGreen (Jones L J, Yue S T, Cheung C Y, Singer V L, Anal. Chem., 265(2):368-74 (1998)) and relative quantitation of HCV RNA expression assessed using the Taqmann procedure (Kolykhalov A A, Mihalik K, Feinstone S M, Rice C M, Journal of Virology 74, 2046-2051 (2000)). Briefly, RNA made to a volume of 5 μl (≦1 ng) was added to a 20 μl Ready-Mix containing the following: 5×EZ rTth buffer, 3 mM MnOAc2, 3 mM dNTPs, 200 nM forward primer, 600 nM reverse primer, 100 nM probe and rTth polymerase. Samples containing known concentrations of HCV RNA transcript were run as standards. Using the following cycling protocol (95° C., 1 min; 60° C., 0.5 min; 95° C., 2 min; 40 cycles of 94° C., 0.5 min, 60° C.; 1 min; and completing with 60° C., 10 min), HCV RNA expression was quantitated as described in the Perkin Elmer manual. The toxicity of compound (CC50) was determined by adding 1/10th volume of alamar Blue to the media incubating the cells. After 4 hr, the fluorescence signal from each well was read, with an excitation wavelength at 530 nm and an emission wavelength of 580 nm, using the Cytofluor Series 4000 (Perspective Biosystems).

The term IC50 denotes the concentration that gives 50% inhibition. By EC50 is commonly meant the concentration at which the effect is half-maximal. Turning to `C=CC1C[C@]1(NC(=O)[C@@H]1C[C@@H](Oc2cc(-c3ccccc3)nc3cc(OC)ccc23)CN1C(=O)[C@@H](NC(=O)OC(C)(C)C)C(C)C)C(=O)NS(=O)(=O)C(C)C` (stereo partly shown) [Compound 32], the IC50 in test [1] was under 50 nM. For the same molecule, in test [2], the EC50 is under 50 nM.
On to `COc1ccc2c(O[C@@H]3C[C@@H](C(=O)NC4(C(=O)NS(=O)(=O)C5CC5)CC4)N(C(=O)[C@@H](NC(=O)OC(C)(C)C)C(C)(C)C)C3)cc(-c3ccccc3)nc2c1` [Compound 67], for which, in test [1], the IC50 is under 50 nM. The EC50 in test [2] was under 5000 nM.
In the same order, the values of `C=CC1C[C@]1(NC(=O)[C@@H]1C[C@@H](Oc2cc(-c3ccccc3)nc3cc(OC)ccc23)CN1C(=O)[C@@H](N)C(C)(C)C)C(=O)NS(=O)(=O)C1CC1` (stereo partly shown) [Compound 28] are under 50 nM and under 5000 nM.
The like results for `C=C[C@@H]1C[C@]1(NC(=O)C1CC(Oc2cc(-c3ccccc3)nc3cc(OC)ccc23)CN1C(=O)[C@@H](NC(=O)OCCF)C(C)(C)C)C(=O)NS(=O)(=O)C1CC1` (stereo partly drawn) [Compound 122, {1S-[2S-(1R-cyclopropanesulfonylaminocarbonyl-2S-vinyl-cyclopropylcarbamoyl)-4R-(7-methoxy-2-phenyl-quinolin-4-yloxy)-pyrrolidine-1-carbonyl]-2,2-dimethyl-propyl}-carbamic acid 2-fluoroethyl ester] were, in that order, under 50 nM and under 50 nM.
In the same order, the values of `C=CC1CC1(NC(=O)C1CC(Oc2cc(-c3ccccc3)nc3cc(OC)ccc23)CN1C(=O)C(NC(=O)C1C2CC1C2)C(C)(C)C)C(=O)NS(=O)(=O)C1CC1` (stereo not drawn) [Compound 105, 1-{2S-[(bicyclo[1.1.1]pentane-2-carbonyl)-amino]-3,3-dimethyl-butyryl}-4R-(7-methoxy-2-phenyl-quinolin-4-yloxy)-pyrrolidine-2S-carboxylic acid (1R-cyclopropanesulfonylaminocarbonyl-2S-vinylcyclopropyl)amide] are under 50 nM and under 50 nM.
Take `C=C1C[C@]1(NC(=O)[C@@H]1C[C@@H](Oc2cc(-c3ccccc3)nc3cc(OC)ccc23)CN1C(=O)C(NC(=O)OC(C)(C)C)C(C)(C)C)C(=O)NS(=O)(=O)c1cccc(C(F)(F)F)c1` (stereo partly shown) [Compound 48]: the 50% inhibitory concentration (IC50) in test [1] is under 50 nM. Also, the EC50 in test [2] was under 500 nM.
The like results for `C=CC1CC1(NC(=O)[C@@H]1C[C@@H](Oc2cc(-c3ccccc3)nc3cc(OC)ccc23)CN1C(=O)[C@@H](NC(=O)OC(C)(C)C)C(C)(C)C)C(=O)NS(C)(=O)=O` (stereo partly shown) [Compound 86] were, in that order, under 50 nM and under 500 nM.
With `C=C1C[C@]1(NC(=O)[C@@H]1C[C@@H](Oc2cc(-c3ccccc3)nc3cc(OC)ccc23)CN1C(=O)C(NC(=O)OC(C)(C)C)C(C)(C)C)C(=O)NS(=O)(=O)c1cccc(Br)c1` (stereo partly shown) [Compound 55], in test [1], the IC50 is under 50 nM. In addition, the EC50 in test [2] was under 50 nM.
With `C=C[C@@H]1C[C@]1(NC(=O)C1CC(Oc2cc(-c3ccccc3)nc3cc(OC)ccc23)CN1C(=O)[C@@H](NC(=O)Oc1ccccc1)C(C)(C)C)C(=O)NS(=O)(=O)C1CC1` (stereo partly drawn) [Compound 116, {1S-[2S-(1R-cyclopropanesulfonylaminocarbonyl-2S-vinyl-cyclopropylcarbamoyl)-4R-(7-methoxy-2-phenyl-quinolin-4-yloxy)-pyrrolidine-1-carbonyl]-2,2-dimethyl-propyl}-carbamic acid phenyl ester], the IC50 in test [1] was under 50 nM. Moreover, in test [2], the EC50 was under 50 nM.
In the case of `CCC(C)[C@H](NC(=O)OC(C)(C)C)C(=O)N1C[C@H](Oc2cc(-c3ccccc3)nc3cc(OC)ccc23)C[C@H]1C(=O)NC1(C(=O)NS(=O)(=O)C2CC2)CC12CCC2` (stereo partly shown) [Compound 137], the IC50 in test [1] is under 5000 nM. Moreover, in test [2], the EC50 is under 5000 nM.
In the case of `CCOC(=O)N[C@H](C(=O)N1C[C@H](Oc2cc(-c3ccccc3)nc3cc(OC)ccc23)C[C@H]1C(=O)N[C@]1(C(=O)NS(=O)(=O)C2CC2)CC1CC)C(C)C` (stereo partly shown) [Compound 7], the IC50 in test [1] is under 50 nM. In test [2], the EC50 is under 500 nM.
Consider `C=CC1C[C@]1(NC(=O)[C@@H]1C[C@@H](Oc2cc(-c3ccccc3)nc3cc(OC)ccc23)CN1C(=O)[C@@H](NC(=O)O[C@H]1CCOC1)C(C)(C)C)C(=O)NS(=O)(=O)C1CC1` (stereo partly drawn) [Compound 18, {1-[2-(1-Cyclopropanesulfonylaminocarbonyl-2-vinylcyclopropylcarbamoyl)-4-(7-methoxy-2-phenyl-quinolin-4-yloxy)-pyrrolidine-1-carbonyl]-2,2-dimethyl-propyl}carbamic acid tetrahydrofuran-3(S)-yl ester], for which, in test [1], the IC50 is under 50 nM. Moreover, the EC50 in test [2] is under 50 nM.
With `C#CCOC(=O)N[C@H](C(=O)N1C[C@H](Oc2cc(-c3ccccc3)nc3cc(OC)ccc23)CC1C(=O)N[C@]1(C(=O)NS(=O)(=O)C2CC2)C[C@H]1C=C)C(C)(C)C` (stereo partly drawn) [Compound 124, {1S-[2S-(1R-cyclopropanesulfonylaminocarbonyl-2S-vinyl-cyclopropylcarbamoyl)-4R-(7-methoxy-2-phenyl-quinolin-4-yloxy)-pyrrolidine-1-carbonyl]-2,2-dimethyl-propyl}-carbamic acid prop-2-ynyl ester], the IC50 in test [1] is under 50 nM. Besides, the EC50 in test [2] is under 50 nM.
For the molecule `C=CC1C[C@]1(NC(=O)[C@@H]1C[C@@H](Oc2cc(-c3ccccc3)nc3cc(OC)ccc23)CN1C(=O)C(NC(=O)OC(C)(C)C)C(C)(C)C)C(=O)NS(=O)(=O)c1ccccc1C` (stereo partly shown) [Compound 63], in test [1], the IC50 was under 50 nM. Moreover, the EC50 in test [2] is under 500 nM.
